Assay results as given in patent publication US9132171B2, “Test of insulin as a drug to reduce restenosis of vessels” (WISCONSIN ALUMNI RESEARCH FOUNDATION, priority 2012, dated 2015).

B1: Connective Tissue Growth Factor (protein, UniProt P29279 27-349, looked up)
CCN family member 2: QNCSGPCRCPDEPAPRCPAGVSLVLDGCGCCRVCAKQLGELCTERDPCDPHKGLFCHFGSPANRKIGVCTAKDGAPCIFGGTVYRSGESFQSSCKYQCTCLDGAVGCMPLCSMDVRLPSPDCPFPRRVKLPGKCCEEWVCDEPKDQTVVGPALAAYRLEDTFGPDPTMIRANCLVQTTEWSACSKTCGMGISTRVTNDNASCRLEKQSRLCMVRPCEADLEENIKKGKKCIRTPKISKPIKFELSGCTSMKTYRAKFCGVCTDGRCCTPHRTTTLPVEFKCPDGEVMKKNMMFIKTCACHYNCPGDNDIFESLYYRKMYGDMA
notes: soluble factor secreted by blood vessel adventitial cells

Key:
IGF-2BP3 = assay: mRNA expression array analysis of TGFbeta/Smad3-treated SMCs; assay type: cell-based, mouse; details: data not shown
Description: Cell Culture. Aortic SMCs were isolated from mouse (MOVAS) aortas. Rat aortic fibroblasts were isolated as previously described by Pagano et al., Localization of a constitutively active, phagocyte-like NADPH oxidase in rabbit aortic adventitia: enhancement by angiotensin II, Proc. Natl. Acad. Sci. USA. December 23; 94(26):14483-8 (1997), incorporated herein by reference as if set forth in its entirety, and used to visualize collagen secretion into growth media. These cells were transfected with green fluorescent protein (GFP) and SMAD3 adenoviral vectors expressing Smad3 (AdSmad3) and GFP (AdGFP), constructed as previously described in Ryer, E. et al., Arterioscler Thromb Vasc Biol. 26:780-786, 2006, incorporated herein by reference as if set forth in its entirety. Adenoviral vector expressing GFP was used as a control (AdGFP).
CTGF and IGF-2 are present in the CM derived from SMCs that overexpress Smad3 (FIGS. 2A and B respectively).

rat aortic fibroblasts = assay: Collagen III and I in culture medium of treated rat aortic fibroblasts (direct ELISA, Western blot); assay type: cell-based; details: CTGF, insulin (1 ug) or both, 72 hours
Experimental: Collagen produced by rat fibroblasts was measured using Western blotting. […] GFP (control) and Smad3-transfected SMCs were starved for 24 hours in 0.5% serum DMEM medium and then treated with TGFbetal (5 ng/ml) for 48 hours. […] Thirty micrograms of proteins from each sample were separated on 10% SDS-PAGE gels. Protein samples were transferred to a polyvinylidene fluoride (PVDF) membrane. Rabbit anti-collagen type III (1:1000) and I (1:1000) (Fitzgerald) and goat-anti Rabbit (1:5000) were used as primary and secondary antibodies respectively to confirm immunoblotting. Conditioned medium was blotted parallel to unconditioned culture medium to rule out the possibility of presence of collagen in the former. Immunoblotting was carried out to visualize collagen I and III in culture medium after treating rat fibroblasts with CTGF (0.1 μg/ml) and IGF-2 (0.3 μg/ml) for 72 hours. These experiments were replicated using insulin in place of IGF-2. ELISA was used to detect the presence of IGF-2 and CTGF in the conditioned medium using the primary antibodies from Abcam® according to manufacturer's instructions. Fitzgerald Collagen I and III primary antibodies were used to visualize changes in collagen production in the fibroblast culture medium following treatment with CTGF and IGF small interfering RNA-(siRNA) transfected conditioned medium for 72 hours. […]

[1] = test system: Smad3-expressing smooth muscle cells (SMCs); assay: MTT cell proliferation assay; assay type: cell-based, rat; details: insulin 1 μg/ml, TGF-beta 5 ng/ml, 96 hours
Experimental: FIG. 7 illustrates a MTT proliferation assay of Smad3-expressing smooth muscle cells (SMCs) at 96 hours after treatment with TGF-beta (5 ng/ml) or TGF beta (5 ng/ml)+Insulin (1 μg/ml).
MTT cell proliferation assay was performed to visualize the effect of insulin on SMC proliferation. Smad3-transfected rat SMCs were stimulated with TGF-beta. Cells were then treated with 1 μg of insulin and the MTT assay was performed following 96 hours of treatment.
To determine whether insulin is sufficient for decreasing TGF-beta and Smad3-stimulated SMC proliferation, an MTT proliferation assay was carried out. Insulin abolished the TGF-beta-stimulated proliferation of Smad3-expressing SMCs (FIG. 7).

[2] = test system: left carotid artery balloon angioplasty; assay: Balloon injury model with morphometric analysis; assay type: in vivo, rat; details: periadventitial in Pluronic gel, 14 days after injury, relative to non-treated vessels
Experimental: In vivo studies conformed to the Guide for the Care and Use of Laboratory Animals published by the US National Institute of Health. Approval from the Institutional Animal Care and Use Committee was granted. Male Sprague-Dawley rats underwent angioplasty of the left common carotid artery. Periadventitial Insulin (1 microgram) along with CTGF (100 nanogram) suspended in 200 μL of Pluronic® gel was applied to the adventitial surface of the artery immediately after injury. Control animals were subjected to application of Pluronic® gel only. Fourteen days after injury, carotid was harvested utilizing perfusion fixation at physiological pressure of 100 mmHg.
Paraffin-embedded arteries were cut into 5 μm sections for analysis. Morphometric analysis was carried out on arteries stained with Haematoxilin and Eosin. For each animal, 10 sections were selected for analysis using digital software for Dell PC Computers (ImageJ and Photoshop V.7). The areas encompassed by the lumen surface (luminal area), […], internal elastic lamina-lumen surface (neointimal area), EEL-internal elastic lamina (medial area) and EEL length were measured. For evaluation of remodeling index, the EEL was measured and compared with that of controls. […]

vessels = details: in vivo; cited from earlier work
balloon-injured vessel = assay: Collagen I/III immunostaining of balloon-injured artery after perivascular CTGF; assay type: in vivo, rat; details: CTGF 80 ng in 200 microliters Pluronic gel, 14 days after carotid artery injury
Description: FIG. 5 illustrates collagen subtype induction by CTGF in vivo. Arteries were injured and treated with recombinant CTGF as described in FIG. 2. Arterial sections, harvested at 14 days post-injury, were subsequently immunostained for either Type I (COLI) or Type III collagen (COLIII). (A) Representative tissue sections from solvent-(CTRL) or CTGF-treated arteries (CTGF). Negative controls were established by staining sections without primary antibodies to collagen. 100X (B) Semi-quantification of adventitial COLI or COLIII was carried out, and the effects of CTGF on COLI or COLIII were expressed as fold induction; n=6, *p<0.05 as compared to COLIII. […] FIG. 5B depicts CTGF-mediated differential production of collagens III and I when CTGF was applied around a balloon-injured vessel.

[3] = test system: balloon-injured blood vessels; details: CTGF applied to balloon-injured vessels; cited from earlier work

Molecule	IGF-2BP3 increase (IGF-2BP3; 6 hours treatment) [folds]	IGF-2BP3 increase (IGF-2BP3; 48 hours treatment) [folds]	Collagen III production in rat aortic fibroblasts (rat aortic fibroblasts)	TGF-beta-stimulated proliferation of Smad3-expressing SMCs [1]	Increase in lumen size [2] [%]	Neo-intimal growth [2]	Cell migration into the intima (vessels)	Intima cell proliferation or apoptosis (vessels)	Re-endothelialization in vessels (vessels)	Adventitial collagen III versus collagen I (balloon-injured vessel)	Lumen remodeling [3]
TGFbeta: TGF-beta (5 ng/ml) used to treat Smad3-transfected SMCs	2.8	2.4	–	–	–	–	–	–	–	–	–
insulin	–	–	some increase in collagen III	abolished	29.24	decreased neo-intimal growth	inhibit cell migration into the intima	does not decrease	increase re-endothelialization	–	–
B1	–	–	some increase in collagen III	–	–	–	–	–	–	collagen III increased significantly more as compared to collagen I	expansively remodeled
